The text below walks through data of patent publication US20220227729A1, “IDENTIFICATION AND USE OF KRAS INHIBITORS” (Bayer Aktiengesellschaft, priority 2019, published 2022).

Some results are limits rather than exact numbers.

Assay [1] addresses recombinant kRas mutant (G12C; C51S; C80L; C118S) (Homo sapiens, UniProt P01116, C118S/C51S/C80L/G12C). Nature of the assay: Covalent binding assay, intact mass LC-MS. The conditions noted are these: 25 μM protein, 25 μM compound, room temperature, 2 h. The protocol:
The percentage of covalent adduct formation at KRas G12C was determined by intact mass determination. To this end 25 μM recombinant kRas mutant (G12C; C51S; C80L; C118S) (storage buffer: 50 mM Tris, pH=8; 50 mM NaCl) were incubated with 25 μM of compound (1% v/v final DMSO concentration) at room temperature for 2 h. For LC-MS analysis the reaction was acidified by adding 4 μL of 4% v/v TFA to 20 μL reaction volume.
Liquid chromatography-mass spectrometry (LC-MS) analysis was performed using a Waters SYNAPT G2-S quadrupole time-of-flight mass spectrometer connected to a Waters nanoAcquity UPLC system. Samples were loaded on a 2.1×5 mm mass prep C4 guard column (Waters) and desalted with a short gradient (3 min.) of increasing concentrations of acetonitrile at a flow rate of 100 μL/min. Spectra were analyzed by using MassLynx v4.1 software and deconvoluted with the MaxEnt1 algorithm.
Percent conversion was determined by the ratio of signal intensities of apo-kRas and kRas+inhibitor.

The next assay concerns the target KRAS^G12C (Homo sapiens, UniProt P01116, G12C). In words: KRAS G12C activation by SOS1cat assay (On-assay), HTRF. The conditions noted are these: SOS1cat mediated loading of GST-KRAS G12C-GDP with fluorescent GTP analogue; 180 min preincubation; 20° C.; read-out: IC50 value biochemical KRAS^G12C activation assay. Here is the method: (§1) Preparation of test compound dilutions. A 100-fold concentrated solution of the test compound (50 nL) in DMSO was transferred to microtiter test plates (384 or 1,536 wells, Greiner Bio-One, Germany) using either a Hummingbird liquid handler (Digilab, MA, USA) or an Echo acoustic system (Labcyte, CA, USA). Plates were sealed with adhesive foil or heat-sealed and stored at −20° C. until use. Serial dilutions of test compounds were prepared in 100% DMSO using a Precision Pipetting System (BioTek, USA).
(§2) Measurement and evaluation of inhibition data, calculation of IC50 values. Homogeneous time-resolved fluorescence (HTRF) was measured with a PHERAstar reader (BMG, Germany) using the HTRF module (excitation: 337 nm; emission 1: 620 nm, emission 2: 665 nm). The ratio of the emissions at 665 and 620 nm was used as the specific signal for further evaluation. The data were normalized using the controls: DMSO=0% inhibition, inhibition control wells with inhibitor control solution=100% inhibition. Compounds were tested in duplicates at up to 11 concentrations (e.g. 20 μM, 5.7 μM, 1.6 μM, 0.47 μM, 0.13 μM, 38 nM, 11 nM, 3.1 nM, 0.89 nM, 0.25 nM and 0.073 nM). IC50 values were calculated using a four-parameter fit, with a commercial software package (Genedata Screener, Switzerland).
(§3) KRAS^G12C activation by SOS1^cat assay (“On-assay”). This assay quantifies SOS1^cat mediated loading of KRAS^G12C-GDP with a fluorescent GTP analogue. Detection of successful loading was achieved by measuring resonance energy transfer from anti-GST-terbium (FRET donor) bound to GST-KRAS^G12c to the loaded fluorescent GTP analogue (FRET acceptor). The fluorescent GTP analogue EDA-GTP-DY-647P1 [2′/3′-O-(2-aminoethyl-carbamoyl)guanosine-5′-triphosphate labelled with DY-647P1 (Dyomics GmbH, Germany)] was synthesized by Jena Bioscience (Germany) and supplied as a 1 mM aqueous solution. A KRAS^G12C working solution was prepared in assay buffer [10 mM HEPES pH 7.4 (AppliChem), 150 mM NaCl (Sigma), 5 mM MgCl2 (Sigma), 1 mM DTT (Thermo Fisher), 0.05% BSA Fraction V pH 7.0 (ICN Biomedicals), 0.0025% (v/v) Igepal (Sigma)] containing 100 nM GST-KRAS^G12C and 2 nM anti-GST-terbium (Cisbio, France). A SOS1^cat working solution was prepared in assay buffer containing 20 nM SOS1^cat and 200 nM EDA-GTP-DY-647P1. An inhibitor control solution was prepared in assay buffer containing 200 nM EDA-GTP-DY-647P1 without SOS1^cat. All steps of the assay were performed at 20° C. A volume of 2.5 μL of the KRAS^G12C working solution was added to all wells of the test plate using a Multidrop dispenser (Thermo LabSystems). After 180 min, 2.5 μL of the SOS1^cat working solution was added to all wells, except for the inhibitor control solution wells. After 30 min incubation, HTRF was measured.

The target in the next assay is KRAS^WT (Homo sapiens, UniProt P01116). In words: Wild-type KRAS activation by SOS1cat assay, HTRF. The conditions noted are these: SOS1cat mediated loading of GST-KRAS WT-GDP with fluorescent GTP analogue; 50 nM GST-KRAS WT; read-out: IC50 value biochemical KRAS^wt activation assay. The protocol: as §1, §2, §3
Wild-type KRAS activation by SOS1^cat assay. This assay quantifies human SOS1^cat mediated loading of wild-type GST-KRAS^WT-GDP with a fluorescent GTP analogue. The assay was performed similar to the KRAS^G12C activation by SOS1^cat assay. GST-KRAS^G12C was replaced by GST-KRAS^WT, which was used at 50 nM final concentration.
A general note: Time-resolved FRET reads energy transfer from a long-lived donor to a nearby acceptor.

Consider `C=CC(=O)N1CCC(c2nc3ccc(-c4cncc5ccccc45)cc3c(=O)[nH]2)C1` (stereo not shown) [Example 18, 6-(Isoquinolin-4-yl)-2-[1-(prop-2-enoyl)pyrrolidin-3-yl]quinazolin-4(3H)-one], for which, in assay [1], the “Covalent Binding Assay (% binding)” value is reported as 4%. The IC50 on KRAS^G12C and at KRAS^WT was more than 20 µM in each case.

On to `C=CC(=O)N1CCC(c2cc3cc(OC)c(-c4ncccc4F)cc3c(=O)[nH]2)C1` (stereo not shown) [Example 9, 7-(3-Fluoropyridin-2-yl)-6-methoxy-3-[-1-(prop-2-enoyl)pyrrolidin-3-yl]isoquinolin-1(2H)-one], for which the “Covalent Binding Assay (% binding)” value in assay [1] was determined as 0%. Further, the IC50 at KRAS^G12C and at KRAS^WT was more than 20 µM throughout.

Turning to `C=CC(=O)N1CCC(c2nc3ccc(-c4cc(Cl)cc(C#N)c4)cc3c(=O)[nH]2)C1` (stereo not shown) [Example 16, 3-Chloro-5-{4-oxo-2-[1-(prop-2-enoyl)pyrrolidin-3-yl]-3,4-dihydroquinazolin-6-yl}benzonitrile], the “Covalent Binding Assay (% binding)” value in assay [1] came to 0%. Besides, the half-maximal inhibitory concentration (IC50) at KRAS^G12C and on KRAS^WT was more than 20 µM each time.

Turning to `C=CC(=O)N1CCC(c2nc3ccc(-c4ccccc4CC)cc3c(=O)[nH]2)C1` (stereo not shown) [Example 15, 6-(2-Ethylphenyl)-2-[1-(prop-2-enoyl)pyrrolidin-3-yl]quinazolin-4(3H)-one], in assay [1], the “Covalent Binding Assay (% binding)” value worked out at 52%. In addition, the IC50 is 7.3 µM on KRAS^G12C and more than 20 µM at KRAS^WT.

For the compound `C=CC(=O)N1CCC(c2nc3cc(Cl)c(-c4c(F)cccc4OC)cc3c(=O)[nH]2)C1` (stereo not shown) [Example 21, 7-Chloro-6-(2-fluoro-6-methoxyphenyl)-2-[1-(prop-2-enoyl)pyrrolidin-3-yl]quinazolin-4(3H)-one], the “Covalent Binding Assay (% binding)” value in assay [1] came out at 26%. Also, the IC50 on KRAS^G12C and at KRAS^WT was more than 20 µM in each case.

On to `C=CC(=O)N1CCC(c2cc3cnc(-c4c(F)cccc4OC)cc3c(=O)[nH]2)C1` (stereo not shown) [Example 41, 7-(2-Fluoro-6-methoxyphenyl)-3-[1-(prop-2-enoyl)pyrrolidin-3-yl]-2,6-naphthyridin-1(2H)-one], for which the “Covalent Binding Assay (% binding)” value in assay [1] is recorded as 32%. The IC50 at KRAS^G12C and at KRAS^WT was more than 20 µM each time.

For `C=CC(=O)N1CCC(c2nc3ccc(-c4sc(C)nc4C)cc3c(=O)[nH]2)C1` (stereo not shown) [Example 19, 6-(2,4-dimethyl-1,3-thiazol-5-yl)-2[1-(prop-2-enoyl)pyrrolidin-3-yl]quinazolin-4(3H)-one], the “Covalent Binding Assay (% binding)” value in assay [1] is given as 4%. The IC50 on KRAS^G12C and at KRAS^WT was more than 20 µM in each case.

On to `C=CC(=O)N1CCC(c2cc3ncc(-c4ccccc4F)cc3c(=O)[nH]2)C1` (stereo not shown) [Example 30, 3-(2-Fluorophenyl)-7-[1-(prop-2-enoyl)pyrrolidin-3-yl]-1,6-naphthyridin-5(6H)-one], for which, in assay [1], the “Covalent Binding Assay (% binding)” value worked out at 69%. Besides, the IC50 on KRAS^G12C is 5.3 µM; on KRAS^WT, more than 20 µM.

Consider `C=CC(=O)N1CCC(c2nc3cnc(-c4c(O)cccc4F)cc3c(=O)[nH]2)C1` (stereo not shown) [Example 39, 6-(2-Fluoro-6-hydroxyphenyl)-2-[1-(prop-2-enoyl)pyrrolidin-3-yl]pyrido[3,4-d]pyrimidin-4(3H)-one], for which the “Covalent Binding Assay (% binding)” value in assay [1] was 73%. For the same compound, the IC50 at KRAS^G12C is 2.6 µM; at KRAS^WT, more than 20 µM.

For the compound `C=CC(=O)N1CCC(c2cc3ccc(-c4c(O)cccc4F)cc3c(=O)[nH]2)C1` (stereo not shown) [Example 1, 7-(2-Fluoro-6-hydroxyphenyl)-3-[1-(prop-2-enoyl)pyrrolidin-3-yl]isoquinolin-1(2H)-one], the IC50 at KRAS^G12C was found to be 4.7 µM.

Turning to `C=CC(=O)N1CCC(c2cc3ncc(-c4ccc(F)cc4F)cc3c(=O)[nH]2)C1` (stereo not shown) [Example 31, 3-(2,4-Difluorophenyl)-7-[1-(prop-2-enoyl)pyrrolidin-3-yl]-1,6-naphthyridin-5(6H)-one], the “Covalent Binding Assay (% binding)” value in assay [1] turned out to be 62%. The half-inhibitory concentration (IC50) at KRAS^G12C was more than 14 µM; at KRAS^WT, more than 20 µM.

As for `C=CC(=O)N1CCC(c2cc3ccc(-c4ccccc4CC)cc3c(=O)[nH]2)C1` (stereo not shown) [Example 5, 7-(2-Ethylphenyl)-3-[1-(prop-2-enoyl)pyrrolidin-3-yl]isoquinolin-1(2H)-one], the “Covalent Binding Assay (% binding)” value in assay [1] worked out at 60%. Further, the IC50 at KRAS^G12C is 8 µM.

In the case of `C=CC(=O)N1CCC(c2nc3cc(Cl)c(-c4cccc5ncccc45)cc3c(=O)[nH]2)C1` (stereo not shown) [Example 26, 7-chloro-2-[1-(prop-2-enoyl)pyrrolidin-3-yl]-6-(quinolin-5-yl)quinazolin-4(3H)-one], in assay [1], the “Covalent Binding Assay (% binding)” value was 41%. In addition, the figures for the IC50 on KRAS^G12C and at KRAS^WT were more than 19 µM and more than 20 µM, respectively.

Consider `C=CC(=O)N1CCC(c2cc3ccc(-c4cccc5ncccc45)cc3c(=O)[nH]2)C1` (stereo not shown) [Example 2, 3-[1-(Prop-2-enoyl)pyrrolidin-3-yl]-7-(quinolin-5-yl)isoquinolin-1(2H)-one], for which, in assay [1], the “Covalent Binding Assay (% binding)” value is 20%. The half-maximal inhibitory concentration (IC50) on KRAS^G12C was more than 9 µM.

With `C=CC(=O)N1CCC(c2cc3ccc(-c4ccc(F)cc4F)cc3c(=O)[nH]2)C1` (stereo not shown) [Example 4, 7-(2,4-Difluorophenyl)-3-[1-(prop-2-enoyl)pyrrolidin-3-yl]isoquinolin-1(2H)-one], the concentration for half-maximal inhibition (IC50) at KRAS^G12C is 5 µM.

Turning to `C=CC(=O)N1CCC(c2cc3ncc(-c4c(O)cccc4F)cc3c(=O)[nH]2)C1` (stereo not shown) [Example 29, 3-(2-Fluoro-6-hydroxyphenyl)-7-[1-(prop-2-enoyl)pyrrolidin-3-yl]-1,6-naphthyridin-5(6H)-one], the “Covalent Binding Assay (% binding)” value in assay [1] was 80%. Besides, the IC50 at KRAS^G12C was 2.8 µM.

With `C=CC(=O)N1CCC(c2cc3ccc(-c4cc(F)cc(F)c4)cc3c(=O)[nH]2)C1` (stereo not shown) [Example 8, 7-(3,5-Difluorophenyl)-3-[1-(prop-2-enoyl)pyrrolidin-3-yl]isoquinolin-1(2H)-one], in assay [1], the “Covalent Binding Assay (% binding)” value came out at 0%.

With `C=CC(=O)N1CCC(c2nc3ccc(-c4c(O)cccc4F)cc3c(=O)[nH]2)C1` (stereo not shown) [Example 17, 6-(2-Fluoro-6-hydroxyphenyl)-2-[1-(prop-2-enoyl)pyrrolidin-3-yl]quinazolin-4(3H)-one], on KRAS^G12C, the IC50 was 4.9 µM.

For the compound `C=CC(=O)N1CCC(c2cc3cnc(-c4c(O)cccc4F)cc3c(=O)[nH]2)C1` (stereo not shown) [Example 42, 7-(2-Fluoro-6-hydroxyphenyl)-3-[1-(prop-2-enoyl)pyrrolidin-3-yl]-2,6-naphthyridin-1(2H)-one], the “Covalent Binding Assay (% binding)” value in assay [1] is 61%. The IC50 at KRAS^G12C was 1.3 µM.

Regarding `C=CC(=O)N1CCC(c2cc3cc(Cl)c(-c4c(O)cccc4F)cc3c(=O)[nH]2)C1` (stereo not shown) [Example 27, 6-Chloro-7-(2-fluoro-6-hydroxyphenyl)-3-[1-(prop-2-enoyl)pyrrolidin-3-yl]isoquinolin-1(2H)-one], the IC50 at KRAS^G12C turned out to be 16 µM.

In general, IC50 refers to the concentration needed to halve the response being measured.
